Reference: publication PMC10223470 (Molecules, 2023)

Assays:
mice [1] = assay: Elevated plus-maze (EPM) test; type: in vivo; settings: 25, 50 and 75 mg/kg i.p., 60 min before the test
Description: The experiments were carried out on 6 weeks old naive Swiss male mice (Experimental Medicine Center (OMD), Lublin, Poland), weighing 28–30 g. The cages with mice were located in air-conditioned rooms maintaining the ambient temperature within the range of 23–25 °C. The animals were provided with a natural 12 h day/night cycle, replicating the day and night mode. Each testing group was represented by 8–10 animals, depending on the research schedule. All experiments were conducted according to the National Institute of Health Guidelines for the Care and Use of Laboratory Animals (8th edition) and to the European Community Council Directive for the Care and Use of Laboratory Animals of 22 September 2010 (2010/63/EU) and were approved by the Local Ethical Committee (number of ethical approval: 147/2018).
Compound 17 (25, 50, 75 mg/kg) was suspended in 1% Tween 80 in saline solution and was administered intraperitoneally (i.p.) 60 min before the test. Diazepam (DZ, Relanium, Polfa, Poland) at a dose of 1 mg/kg was diluted in 0.9% saline containing 1% Tween 80 and was administered subcutaneously (s.c.), 60 min before the test. Imipramine hydrochloride (30 mg/kg, Sigma-Aldrich was administered intraperitoneally (i.p.) 60 min before the test. D-amphetamine sulfate (3 mg/kg; Sigma-Aldrich, USA) was given subcutaneously (s.c.). Prior to administration, the agent was dissolved in saline and injected 30 min before the test. Control animals received an (i.p.) or (s.c.) injection of a respective vehicle. All compounds were injected in a manner generally accepted in experimental pharmacology, in an amount of 10 mL/kg body weight.
The experiment was carried out on mice according to the method of Lister. […] The number of entries into the open arms and the time spent in these arms were scored for a 5-min test period. […] The following measures were obtained from the test: the total number of arm entries, the percentage of entries into the open arms, the time spent in the open arms expressed as a percentage of the time spent in both the open and closed arms. […]

human D2S receptor = biological target: T1, human D2S receptor (Homo sapiens, UniProt P14416); assay: Competition radioligand binding at human D2 receptor ([3H]-Spiperone, CHO-K1 membranes); settings: mean ± SEM of 2–3 independent experiments in duplicate; read-out: huD2 Ki
T1 construct: expressed in transfected cells; host or cells: CHO-K1
Description: Experiments were carried out in membranes isolated from a CHO-K1 cell line stably overexpressing the cloned human D2S receptor.
(§1) Competition radioligand binding assays were performed on membranes isolated from cell lines stably expressing the cloned human receptors, which were either in-house or commercially available. […] Assays (250 μL assay final volume) were carried out in 96-well polypropylene plates in duplicate. In short, the suspension of appropriate membrane protein was incubated in an assay buffer with the addition of the corresponding radioligand, in the presence or absence of a tested compound or reference compound. […] After the incubation, the content of the test plates was transferred to 96 well plates with glass fiber filter GF/B or GF/C, previously pretreated with polyethyleneimine (PEI), and rapidly filtered with the use of vacuum, followed by rapid washing with cold (4 °C) wash buffer. After that, the filter plates were dried at 60 °C for 1 h. Then, 30 μL of liquid scintillation cocktail (UniverSol-ES, MP Biomedicals, Solon, OH, USA) was added to each well of the filter plates, and the radioactivity was measured in a MicroBeta^2 microplate scintillation counter (PerkinElmer, Madrid, Spain).
(§2) Competition binding curves were fitted to a one-site competition binding model (Fit Ki) with the use of Prism 7 software (GraphPad, San Diego, CA, USA). logKi (log of the equilibrium dissociation constant (Ki)) values were obtained after constraining the concentration of radioligand employed in the assay and its dissociation constant (KD) as determined in saturation radioligand binding assays.

[2] = biological target: T2, human dopamine D1 receptor (Homo sapiens, UniProt P21728); assay: Competition radioligand binding at human D1 receptor ([3H]-SCH-23390); settings: mean ± SEM of 2 independent experiments, read-out: huD1 % inh. at 10 µM
T2 construct: expressed in transfected cells; host or cells: CHO-K1
Description: as §1, §2

mice [3] = assay: Forced swim test (FST); type: in vivo; settings: 60 min before the test
Description: The experiments were carried out on 6 weeks old naive Swiss male mice (Experimental Medicine Center (OMD), Lublin, Poland), weighing 28–30 g. The cages with mice were located in air-conditioned rooms maintaining the ambient temperature within the range of 23–25 °C. The animals were provided with a natural 12 h day/night cycle, replicating the day and night mode. Each testing group was represented by 8–10 animals, depending on the research schedule. All experiments were conducted according to the National Institute of Health Guidelines for the Care and Use of Laboratory Animals (8th edition) and to the European Community Council Directive for the Care and Use of Laboratory Animals of 22 September 2010 (2010/63/EU) and were approved by the Local Ethical Committee (number of ethical approval: 147/2018). Compound 17 (25, 50, 75 mg/kg) was suspended in 1% Tween 80 in saline solution and was administered intraperitoneally (i.p.) 60 min before the test. […] Imipramine hydrochloride (30 mg/kg, Sigma-Aldrich was administered intraperitoneally (i.p.) 60 min before the test. […] Sigma-Aldrich, USA) was given subcutaneously (s.c.). Prior to administration, the agent was dissolved in saline and injected 30 min before the test. Control animals received an (i.p.) or (s.c.) injection of a respective vehicle. All compounds were injected in a manner generally accepted in experimental pharmacology, in an amount of 10 mL/kg body weight. Forced Swim Test was carried out according to the method of Porsolt et al.. It is a standard behavioral test, called the resignation test, which is used to determine the effectiveness of antidepressant drugs in laboratory rodents. Each mouse was placed individually for 6 min into a glass cylinder (height 25 cm, diameter 10 cm) with 15 cm of water at 23–25 °C. After the first 2 min of the test, the total duration of immobility (in seconds) was measured. An animal was judged to be immobile when it ceased struggling and remained floating motionless and making only movements allowing it to keep the head just above the surface of the water.

T2 sequence (P21728 whole entry): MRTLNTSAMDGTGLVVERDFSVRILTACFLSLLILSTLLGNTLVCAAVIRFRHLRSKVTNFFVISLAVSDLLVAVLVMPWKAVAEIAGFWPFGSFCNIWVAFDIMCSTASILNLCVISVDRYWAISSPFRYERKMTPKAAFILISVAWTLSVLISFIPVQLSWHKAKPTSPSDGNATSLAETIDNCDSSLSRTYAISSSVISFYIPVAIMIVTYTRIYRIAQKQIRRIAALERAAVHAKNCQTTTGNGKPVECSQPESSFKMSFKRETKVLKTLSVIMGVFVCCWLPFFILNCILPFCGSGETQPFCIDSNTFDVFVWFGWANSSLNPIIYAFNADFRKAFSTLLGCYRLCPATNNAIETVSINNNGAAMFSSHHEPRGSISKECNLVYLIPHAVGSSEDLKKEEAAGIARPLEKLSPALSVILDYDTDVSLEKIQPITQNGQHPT
T1 sequence (P14416 1-414 isoform P14416-2): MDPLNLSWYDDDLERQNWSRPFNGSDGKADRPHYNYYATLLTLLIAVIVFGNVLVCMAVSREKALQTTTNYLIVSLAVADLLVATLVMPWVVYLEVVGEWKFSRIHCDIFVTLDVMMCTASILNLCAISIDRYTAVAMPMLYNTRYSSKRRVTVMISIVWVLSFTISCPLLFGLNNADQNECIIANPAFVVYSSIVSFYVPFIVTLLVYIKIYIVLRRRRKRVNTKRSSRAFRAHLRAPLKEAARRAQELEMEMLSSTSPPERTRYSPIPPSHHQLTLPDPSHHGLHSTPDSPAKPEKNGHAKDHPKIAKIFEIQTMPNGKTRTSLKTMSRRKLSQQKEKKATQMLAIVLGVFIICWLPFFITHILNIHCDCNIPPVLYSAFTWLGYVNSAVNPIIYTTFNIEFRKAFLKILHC

O=C(CCN1C(=O)CSc2ccccc21)Nc1ccc(Cl)cc1 [Compound 17, N-(4-Chlorophenyl)-3-(3-oxo-2,3-dihydro-4H-benzo[b][1,4]thiazin-4-yl)propanamide]
percentage of entries into open arms (mice [1]): did not change
percentage of the time spent in open arms (mice [1]): did not change
Ki (human D2S receptor): 381 ± 48 nM
inhibition at 10 µM [2]: 21 ± 2%
effect on immobility time (mice [3]; 25 mg/kg i.p., p > 0.05): no statistically significant effect
effect on total time of immobility vs control group (mice [3]; 50 mg/kg i.p., p < 0.001): significantly reduced
effect on total time of immobility vs control group (mice [3]; 75 mg/kg i.p., p < 0.01): significantly reduced
